Entries after “also recorded” stand apart in the source; their conditions may differ. Like-named read-outs stand apart in the source and are kept apart here.
Legend:
[1] = test system: MCF7, 4T1, WiDr, and MDA-MB-231 cell lines; experiment: MTT cell proliferation inhibition, all cell lines tested; format: cell-based; details: for cell proliferation inhibition: concentrations up to 500 µM, solubility limit above (0.1% DMSO in growth media)
Experimental: (§1) Cell proliferation inhibition was evaluated using 3-(4,5-dimethylthiazol-2-yl)-2,5-diphenyl tetrazolium bromide (MTT) assay as reported previously[19].

MCF7 cell line = experiment: MTT cell proliferation inhibition assay; details: Homo sapiens, MCF7, read-out: MTT IC50
Experimental: (§2) Human triple-negative breast cancer MDA-MB-231 cells (ATCC) were grown in DMEM supplemented with 10% FBS (Atlanta Biologicals) and penicillin-streptomycin (50U/ml, 50 µg/ml, Invitrogen). Human colorectal adenocarcinoma WiDr cells (ATCC) were cultured in MEM medium supplemented with 10% FBS and penicillin-streptomycin. […] Murine metastatic breast cancer 4T1 cells were grown in RPMI-1640 supplemented with 10% FBS and penicillin-streptomycin. Human estrogen receptor positive breast cancer MCF7 cells (Masonic Cancer Center, University of Minnesota) were grown in MEM supplemented with 6% FBS, EGF (0.01 µg/ml), NEAA, HDC (1 µg/ml), insulin (10 µg/ml), HEPES (12 mM) and sodium pyruvate (1 mM).
as §1

4T1 cell line = experiment: MTT cell proliferation inhibition assay; details: Mus musculus, 4T1, read-out: MTT IC50
Experimental: as §2, §1

MCT1 = molecular target: T1, MCT1 (Rattus norvegicus, UniProt P53987); experiment: MCT1 inhibition assay via L-[14C]-lactate uptake in RBE4 cells; format: cell-based; details: for MCT1 inhibition properties: at the concentrations tested, RBE4 cells
T1 construct: using an L-[^14C]-lactate study on the MCT1 expressing RBE4 cell line; endogenous in cells; host or cells: RBE4 (rat brain endothelial 4) cells, a gift from F. Roux
T1 sequence (P53987 1-494): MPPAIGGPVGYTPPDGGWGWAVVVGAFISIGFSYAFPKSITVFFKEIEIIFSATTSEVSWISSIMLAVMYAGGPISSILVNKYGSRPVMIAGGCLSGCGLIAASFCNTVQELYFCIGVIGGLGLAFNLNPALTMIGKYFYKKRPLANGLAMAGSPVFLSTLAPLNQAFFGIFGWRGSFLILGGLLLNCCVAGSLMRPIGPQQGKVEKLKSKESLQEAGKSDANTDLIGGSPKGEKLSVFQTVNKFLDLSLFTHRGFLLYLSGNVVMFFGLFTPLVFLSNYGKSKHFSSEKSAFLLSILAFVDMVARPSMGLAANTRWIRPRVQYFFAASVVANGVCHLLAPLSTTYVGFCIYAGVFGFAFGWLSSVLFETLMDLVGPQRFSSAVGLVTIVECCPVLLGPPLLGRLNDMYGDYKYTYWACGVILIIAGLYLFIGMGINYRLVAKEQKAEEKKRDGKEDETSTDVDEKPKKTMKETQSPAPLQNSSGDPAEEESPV

MDA-MB-231 cell line = experiment: MTT cell proliferation inhibition assay; details: Homo sapiens, MDA-MB-231, read-out: MTT IC50
Experimental: as §2, §1

WiDr cell line = experiment: MTT cell proliferation inhibition assay; details: Homo sapiens, read-out: MTT IC50
Experimental: as §2, §1

WiDr cells = experiment: Western blot analysis of cell damage and death markers; format: cell-based, human; details: WiDr cultures treated with 2a plus NAC
Experimental: Owing to the enhanced antiproliferative effects induced by test compound 2a when compared to CHC, western blot analysis of cell damage and death markers was performed. The master transcription factor p53 regulates the expression of numerous genes involved in cancer progression and is responsible for balancing proliferation and apoptosis. In this regard, we evaluated the effects of compound treatment on p53 expression. Literature reports indicate that MDA-MB-231 and WiDr cells express distinct homozygous mutant forms of p53 that promote an aggressive malignant phenotype with resistance to apoptosis[36],[37]. […] Further, PARP1 is involved in the DNA repair pathway through sensing DNA-strand breaks and recruiting repair enzymes. Importantly, PARP1 is a target of caspase cleavage under apoptotic conditions, and the appearance of the PARP1 cleavage product is a widely used indicator of cellular apoptosis. […] Additionally, DNA damage may be a downstream effect of apoptotic nuclease activity or an increase in reactive oxygen species (ROS) from damaged mitochondria; as illustrated in microscopy and seahorse experiments. Histone 2AX phosphorylation (γH2AX) resulting from DNA single- and double-strand breaks is a widely employed marker for DNA damage. In this regard, we investigated the effect of 2a on DNA damage marker γH2AX (phosphorylated Ser139, histone H2AX) with a phospho-specific antibody. […] Due to the potential of ROS leading to DNA damage and H2AX phosphorylation, we investigated the ability of antioxidant N-acetyl cysteine (NAC) to inhibit DNA damage of compound 2a as evidenced by H2AX phosphorylation in the highly oxidative cell line WiDr (Fig. 4A).
50,000 WiDr or MDA-MB-231 cells were seeded in 100 mm dishes and were incubated for 48 hours. Cells were then treated with test compounds for 24 hours, washed twice with 1X PBS, solubilized in 200 μL SDS boiling buffer (5% w/v SDS, 10% v/v glycerol, and 60 mM Tris pH 6.8), and sonicated. The resulting cell lysate was then assayed for protein using the Pierce BCA protocol. A volume of test sample containing 10 μg protein was loaded on SDS PAGE gel for electrophoresis according to manufacturer’s instructions. Proteins were transferred from the gel to nitrocellulose membrane according to the manufacturer’s instructions. Membranes were blocked for 1 hr at 35 °C using 10% (w/v) non-fat milk in PBST and were exposed to primary antibody. PARP1 (rabbit polyclonal IgG, Origene, TA321555), p53 (rabbit polyclonal IgG, Santa Cruz, sc50329), and γ-H2AX (Upstate 05-636, 1:2500) were detected and visualized using HRP chemiluminescence. For relative quantitation, β-actin (mouse monoclonal IgG C4, Millipore, MAB1501, 1:10,000) and GAPDH (mouse monoclonal IgG, Santa Cruz, sc47724, 1:100) were detected and measured as a control protein.

[2] = L-[14C]-lactate uptake, MCT1 expressing RBE4 cell line, average ± SEM of three separate experiments, read-out: MCT1 IC50

Compound | IC50 ([1]; read-out: MTT IC50 values, span over all the cell lines tested) [µM] | IC50 (MCF7 cell line) [µM] | IC50 (4T1 cell line) [µM] | IC50 (MCT1) [µM] | concentration at which MCT1 function is inhibited (MCT1; lactate uptake assay, discussion statement) [µM] | IC50 (MDA-MB-231 cell line) [µM] | IC50 (WiDr cell line) [µM] | effect on 2a-induced H2AX activation (WiDr cells) | effect on 2a-induced PARP1 cleavage (WiDr cells) | cell proliferation inhibition [1] | IC50 (MCT1; [2]) [µM] | MCT1 inhibition properties (MCT1)
N#CC(=Cc1ccc(O)cc1)C(=O)O [CHC 1, α-cyano-4-hydroxycinnamic acid, reference compound] | 1100 to 5300 | 4000 ± 130 | 3600 ± 300 | > 150 | ≥ 150 | 5300 ± 130 | 1100 ± 96 | – | – | – | – | –
CC(=O)N[C@@H](CS)C(=O)O [NAC, N-acetyl cysteine, reference compound] | – | – | – | – | – | – | – | significantly reduced | did not reverse PARP1 cleavage | – | – | –
N#C/C(=C\c1ccc(OCCO)cc1)C(=O)O [2c] | – | > 500 | > 500 | – | – | > 500 | > 500 | – | – | did not show significant cell proliferation inhibition; also recorded: did not exhibit any cell proliferation inhibition properties | > 5 | did not exhibit MCT1 inhibition properties
N#C/C(=C\c1ccc(OCCBr)cc1)C(=O)O [2d] | – | > 500 | > 500 | – | – | > 500 | > 500 | – | – | did not show significant cell proliferation inhibition; also recorded: did not exhibit any cell proliferation inhibition properties | > 5 | did not exhibit MCT1 inhibition properties
